Data reported in patent US9624217B2, “Dihydropyrrolopyridine inhibitors of ROR-gamma” (Vitae Pharmaceuticals, Inc., priority 2014, dated 2017).

What was measured:
[1] = molecular target: full-length RORγt (Homo sapiens (Human), UniProt P51449); experiment: RORγt 5×RORE Assay in Jurkat Cells (Assay 2); assay type: cell-based; conditions: secreted Nanoluc luciferase 5×RORE reporter, 16-18 hrs, read-out: RORγt5X IC50 Range
Experimental: [formula] RORγt 5×RORE Assay in Jurkat Cells (Assay 2)
Compounds of the present invention were tested for RORγ inverse agonist activity in a cell-based, transcriptional activity assay. […] (Promega, Cat. #N1021) using KpnI and HindIII restriction sites. […] Luciferase activity in the conditioned supernatants was determined with NanoGlo® assay reagents (Promega, Cat. #N1130).

[2] = molecular target: recombinant RORγ Ligand Binding Domain (LBD) (Homo sapiens (Human), UniProt P51449); experiment: Radio-Ligand RORγ Binding Assay (Assay 1); conditions: SPA competition with 25-hydroxy [26,27-3H]-cholesterol, cell-free; read-out: RORγ Binding Ki Range
Sequence of recombinant RORγ Ligand Binding Domain (LBD) (P51449 269-508): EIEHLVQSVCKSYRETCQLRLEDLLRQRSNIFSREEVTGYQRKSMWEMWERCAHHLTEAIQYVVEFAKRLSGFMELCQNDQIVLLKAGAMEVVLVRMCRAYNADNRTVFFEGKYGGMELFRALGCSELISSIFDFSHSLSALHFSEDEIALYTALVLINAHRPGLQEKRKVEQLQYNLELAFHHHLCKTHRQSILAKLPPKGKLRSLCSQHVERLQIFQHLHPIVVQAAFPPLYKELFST
Experimental: Radio-Ligand RORγ Binding Assay (Assay 1)
Compounds of the present invention were tested for ability to bind to RORγ in a cell-free competition assay with commercially available radio-ligand (RL), 25-hydroxy [26,27-^3H]-cholesterol (PerkinElmer, Cat. #NET674250UC), for a ligand binding site on a recombinant RORγ Ligand Binding Domain (LBD) protein expressed as a 6×His-Glutathione-S-Transferase (GST) fusion. […] The plate was shaken at 700 rpm for 20 min and incubated for 10 min at rt, after which 40 μL of poly-Lys YSi SPA beads (PerkinElmer, Cat. #RPNQ0010) were added to achieve 50 μg of the beads per well. The plate was incubated on an orbital shaker for 20 min and then for 10 min without agitation at rt. SPA signal for tritium beta radiation was registered on PerkinElmer Microbeta plate reader. […] The percent inhibition vs. concentration data were fit into a four-parameter model, and IC50 values were calculated from the fit as the concentrations corresponding to the inflection points on the dose-response curves.

Sequence of full-length RORγt (P51449 other isoform, or with tags, fused parts or gaps): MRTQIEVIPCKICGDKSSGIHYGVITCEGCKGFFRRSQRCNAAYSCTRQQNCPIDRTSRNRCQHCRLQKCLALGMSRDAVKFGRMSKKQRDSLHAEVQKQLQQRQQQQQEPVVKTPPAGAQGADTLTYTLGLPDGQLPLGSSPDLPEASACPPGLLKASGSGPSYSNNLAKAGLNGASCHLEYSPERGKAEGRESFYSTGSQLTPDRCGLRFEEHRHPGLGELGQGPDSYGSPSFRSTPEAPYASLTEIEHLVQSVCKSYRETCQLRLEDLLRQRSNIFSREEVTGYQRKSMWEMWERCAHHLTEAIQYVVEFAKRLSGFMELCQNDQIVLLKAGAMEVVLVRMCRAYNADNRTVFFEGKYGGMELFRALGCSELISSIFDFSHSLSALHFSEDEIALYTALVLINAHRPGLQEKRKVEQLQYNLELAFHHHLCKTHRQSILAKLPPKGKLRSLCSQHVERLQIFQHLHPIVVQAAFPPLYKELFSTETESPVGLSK

| IC50 [1] [nM] | Ki [2] [nM] | SMILES |
| --- | --- | --- |
| < 100 | < 100 | CCS(=O)(=O)c1ccc(CNC(=O)c2cnc3c(c2)CN(Cc2ccc(Cl)cc2)[C@H]3C(C)C)cc1 [Compound 3] |
| < 100 | < 100 | CCS(=O)(=O)c1ccc(CNC(=O)c2cnc3c(c2)CN(Cc2ccc(C#N)cc2)[C@H]3C(C)C)cc1 [Compound 4] |
| < 100 | < 100 | CCS(=O)(=O)c1ccc(CNC(=O)c2cnc3c(c2)CN(Cc2ccc(OC(F)F)cc2)[C@H]3C(C)C)cc1 [Compound 5] |
| 100 to 1000 | < 100 | CCS(=O)(=O)c1ccc(CNC(=O)c2cnc3c(c2)CN(Cc2ccc(F)cc2)[C@H]3C(C)C)cc1 [Compound 7] |
| > 1000 | < 100 | CCS(=O)(=O)c1ccc(CNC(=O)c2cnc3c(c2)CN(c2ncc(C(F)(F)F)cn2)[C@H]3C(C)C)cc1 [Compound 8] |
| > 1000 | < 100 | CCOC(=O)c1cnc(N2Cc3cc(C(=O)NCc4ccc(S(=O)(=O)CC)cc4)cnc3[C@@H]2C(C)C)nc1C(F)(F)F [Compound 10] |
| > 1000 | 100 to 1000 | CCS(=O)(=O)c1ccc(CNC(=O)c2cnc3c(c2)C(=O)N(Cc2ccc(Cl)cc2)C3(O)C(C)C)cc1 (stereo not shown) [Compound 11] |
| < 100 | < 100 | CC(C)[C@H]1c2ncc(C(=O)NCc3ccc(S(C)(=O)=O)cc3)cc2CN1Cc1ccc(Cl)cc1 [Compound 17] |
| 100 to 1000 | 100 to 1000 | CC(C)[C@H]1c2ncc(C(=O)NCc3ccc(S(C)(=O)=O)cc3)cc2CN1Cc1ccc(C#N)cc1 [Compound 21] |
| < 100 | < 100 | CC(C)[C@H]1c2ncc(C(=O)NCc3ccc(S(C)(=O)=O)cc3)cc2CN1Cc1ccc(C(F)(F)F)cc1 [Compound 22] |
| > 1000 | < 100 | CC(C)[C@H]1c2ncc(C(=O)NCc3ccc(S(C)(=O)=O)cc3)cc2CN1Cc1ccc(F)cc1 [Compound 24] |
| > 1000 | < 100 | CCS(=O)(=O)c1ccc(CNC(=O)c2cnc3c(c2)CN(C(=O)OCc2ccc(Cl)cc2)[C@H]3C(C)C)cc1 [Compound 25] |
| < 100 | < 100 | CCS(=O)(=O)c1ccc(CNC(=O)c2cnc3c(c2)[C@@H](C)N(Cc2ccc(Cl)cc2)[C@H]3C(C)C)cc1 [Compound 28] |
| < 100 | < 100 | CCS(=O)(=O)c1ccc(CNC(=O)c2cnc3c(c2)[C@H](C)N(Cc2ccc(Cl)cc2)[C@H]3C(C)C)cc1 [Compound 29] |
| < 100 | < 100 | CCS(=O)(=O)c1ccc(CNC(=O)c2cnc3c(c2)[C@@H](C)N(Cc2ccc(C(F)(F)F)cc2)[C@H]3C(C)C)cc1 [Compound 30] |
| < 100 | < 100 | CCS(=O)(=O)c1ccc(CNC(=O)c2cnc3c(c2)[C@H](C)N(Cc2ccc(C(F)(F)F)cc2)[C@H]3C(C)C)cc1 [Compound 31] |
| < 100 | < 100 | CCS(=O)(=O)c1ccc(CNC(=O)c2cnc3c(c2)CN(Cc2ccc(C(F)(F)F)cc2)[C@H]3C(C)C)nc1 [Compound 33] |
| < 100 | < 100 | CCS(=O)(=O)c1ccc(CNC(=O)c2cnc3c(c2)CN(Cc2ccc(Cl)cc2)[C@H]3C(C)C)nc1 [Compound 34] |
| 100 to 1000 | < 100 | CCS(=O)(=O)c1ccc(CNC(=O)c2cnc3c(c2)CN(Cc2ccc(C#N)cc2)[C@H]3C(C)C)nc1 [Compound 35] |
| > 1000 | < 100 | CCS(=O)(=O)c1ccc(CNC(=O)c2cnc3c(c2)CN(CC2CCC(F)(F)CC2)[C@H]3C(C)C)cc1 [Compound 42] |
| > 1000 | < 100 | CCS(=O)(=O)c1ccc(CNC(=O)c2cnc3c(c2)CN(CC2CCC(F)(F)CC2)[C@H]3C(C)C)nc1 [Compound 43] |
| < 100 | < 100 | CCS(=O)(=O)c1ccc(CNC(=O)c2cnc3c(c2)CN(C[C@H]2CC[C@H](OC)CC2)[C@H]3C(C)C)cc1 [Compound 45] |
| > 1000 | < 100 | CCS(=O)(=O)c1ccc(CNC(=O)c2cnc3c(c2)CN(C(=O)OC(C)(C)C)[C@H]3C(C)C)nc1 [Compound 46, Tert-butyl (S)-3-(((5-(ethylsulfonyl)pyridin-2-yl)methyl)carbamoyl)-7-isopropyl-5,7-dihydro-6H-pyrrolo[3,4-b]pyridine-6-carboxylate] |
| < 100 | < 100 | CCS(=O)(=O)c1ccc(CNC(=O)c2cnc3c(c2)CN(CC2CCN(CC(F)(F)F)CC2)[C@H]3C(C)C)cc1 [Compound 49] |

| IC50 [1] [nM] | Ki [2] [nM] | SMILES |
| --- | --- | --- |
| < 100 | < 100 | CCS(=O)(=O)c1ccc(CNC(=O)c2cnc3c(c2)CN(Cc2ccc4c(c2)OC(F)(F)O4)[C@H]3C(C)C)nc1 [Compound 54] |
| < 100 | < 100 | CCS(=O)(=O)c1ccc(CC(=O)Nc2cnc3c(c2)CN(C[C@H]2CC[C@H](C(F)(F)F)CC2)[C@H]3C(C)C)cc1 [Compound 55] |
| 100 to 1000 |  | CCS(=O)(=O)c1ccc(CC(=O)Nc2cnc3c(c2)CN(Cc2ccc(Cl)cc2)[C@H]3C(C)C)cc1 [Compound 56] |
| < 100 | < 100 | CCS(=O)(=O)c1ccc(CC(=O)Nc2cnc3c(c2)CN(Cc2ccc(C#N)cc2)[C@H]3C(C)C)cc1 [Compound 57] |
| < 100 | < 100 | CCS(=O)(=O)c1ccc(CC(=O)Nc2cnc3c(c2)CN(Cc2ccc(C(F)(F)F)cc2)[C@H]3C(C)C)cc1 [Compound 58] |
|  | > 1000 | COC(=O)C1(CNC(=O)c2cnc3c(c2)CN(Cc2ccc(C(F)(F)F)cc2)[C@H]3C(C)C)CCOCC1 [Compound 134] |
|  | > 1000 | COC(=O)C(Cc1cc(=O)[nH]c2ccccc12)NC(=O)c1cnc2c(c1)CN(Cc1ccc(C(F)(F)F)cc1)[C@H]2C(C)C (stereo partly shown) [Compound 135] |
|  | > 1000 | CC(C)[C@H]1c2ncc(C(=O)NC(Cc3cc(=O)[nH]c4ccccc34)C(=O)O)cc2CN1Cc1ccc(C(F)(F)F)cc1 (stereo partly shown) [Compound 136] |
|  | > 1000 | COC(=O)CC1(CNC(=O)c2cnc3c(c2)CN(Cc2ccc(C(F)(F)F)cc2)[C@H]3C(C)C)CCCCC1 [Compound 137] |
|  | > 1000 | CC(C)[C@H]1c2ncc(C(=O)NC(Cc3ccc(F)cc3)C(=O)O)cc2CN1Cc1ccc(C(F)(F)F)cc1 (stereo partly shown) [Compound 138] |
|  | > 1000 | CC(C)[C@H]1c2ncc(C(=O)NC(CC(=O)O)c3ccc(Br)cc3)cc2CN1Cc1ccc(C(F)(F)F)cc1 (stereo partly shown) [Compound 140] |
|  | > 1000 | CC(C)[C@H]1c2ncc(C(=O)NCC3(CC(=O)O)CCCCC3)cc2CN1Cc1ccc(C(F)(F)F)cc1 [Compound 145] |
|  | > 1000 | CC(C)[C@H]1c2ncc(C(=O)NCC3(C(=O)O)CCOCC3)cc2CN1Cc1ccc(C(F)(F)F)cc1 [Compound 146] |
|  | 100 to 1000 | CC(C)[C@H]1c2ncc(C(=O)NCc3ccc(C(=O)O)cc3)cc2CN1Cc1ccc(C(F)(F)F)cc1 [Compound 147, (S)-4-((7-isopropyl-6-(4-(trifluoromethyl)benzyl)-6,7-dihydro-5H-pyrrolo[3,4-b]pyridine-3-carboxamido)methyl)benzoic acid] |
|  | > 1000 | CC(C)[C@H]1c2ncc(C(=O)NC[C@H]3CC[C@H](C(=O)O)CC3)cc2CN1Cc1ccc(C(F)(F)F)cc1 [Compound 148] |
|  | > 1000 | COC(=O)c1ccc(CNC(=O)c2cnc3c(c2)CN(Cc2ccc(C(F)(F)F)cc2)[C@H]3C(C)C)nc1 [Compound 150] |
|  | 100 to 1000 | CC(C)[C@H]1c2ncc(C(=O)NCc3ccc(C(=O)O)cn3)cc2CN1Cc1ccc(C(F)(F)F)cc1 [Compound 151] |
|  | > 1000 | CC(C)[C@H]1c2ncc(C(=O)NCCC3CN(S(C)(=O)=O)C3)cc2CN1Cc1ccc(C(F)(F)F)cc1 [Compound 152] |
|  | > 1000 | CC(C)[C@H]1c2ncc(C(=O)NCC3CN(S(C)(=O)=O)C3)cc2CN1Cc1ccc(C(F)(F)F)cc1 [Compound 153] |
|  | > 1000 | CC(C)[C@H]1c2ncc(C(=O)NCC3CCN(S(C)(=O)=O)C3)cc2CN1Cc1ccc(C(F)(F)F)cc1 (stereo partly shown) [Compound 154] |
|  | > 1000 | CC(C)[C@H]1c2ncc(C(=O)NC[C@@H]3CCN(C(=O)OC(C)(C)C)C[C@H]3O)cc2CN1Cc1ccc(C(F)(F)F)cc1 [Compound 156] |
|  | > 1000 | CC(=O)O[C@@H]1CN(C(C)=O)CC[C@H]1CNC(=O)c1cnc2c(c1)CN(Cc1ccc(C(F)(F)F)cc1)[C@H]2C(C)C [Compound 157] |
|  | 100 to 1000 | CC(C)[C@H]1c2ncc(C(=O)N[C@H](CO)c3ccc(C#N)cc3)cc2CN1Cc1ccc(C(F)(F)F)cc1 [Compound 158] |
|  | < 100 | CCS(=O)(=O)c1ccc(CNC(=O)c2cnc3c(c2)CN(Cc2ccc(C(F)(F)F)cc2)[C@H]3C(C)C)nn1 [Compound 159] |

| SMILES | IC50 [1] [nM] | Ki [2] [nM] |
| --- | --- | --- |
| CCS(=O)(=O)c1ccc(CNC(=O)c2cnc3c(c2)CN(C(=O)OC(C)(C)C)[C@H]3C(C)C)cc1 [Compound 15, tert-butyl (S)-3-((4-(ethylsulfonyl)benzyl)carbamoyl)-7-isopropyl-5,7-dihydro-6H-pyrrolo[3,4-b]pyridine-6-carboxylate] | > 1000 |  |
| CC(C)[C@H]1c2ncc(C(=O)N[C@H]3c4ccccc4C[C@H]3O)cc2CN1Cc1ccc(C(F)(F)F)cc1 [Compound 131] |  | 100 to 1000 |
| CC(C)[C@H]1c2ncc(C(=O)N[C@H]3c4ccccc4C[C@H]3O)cc2CN1Cc1ccc(C(F)(F)F)cc1 [Compound 132] |  | 100 to 1000 |
